Where a name gives a salt, the structure may show the parent alone.

Sequence of His-tagged recombinant human TrkA (P04629 440-796): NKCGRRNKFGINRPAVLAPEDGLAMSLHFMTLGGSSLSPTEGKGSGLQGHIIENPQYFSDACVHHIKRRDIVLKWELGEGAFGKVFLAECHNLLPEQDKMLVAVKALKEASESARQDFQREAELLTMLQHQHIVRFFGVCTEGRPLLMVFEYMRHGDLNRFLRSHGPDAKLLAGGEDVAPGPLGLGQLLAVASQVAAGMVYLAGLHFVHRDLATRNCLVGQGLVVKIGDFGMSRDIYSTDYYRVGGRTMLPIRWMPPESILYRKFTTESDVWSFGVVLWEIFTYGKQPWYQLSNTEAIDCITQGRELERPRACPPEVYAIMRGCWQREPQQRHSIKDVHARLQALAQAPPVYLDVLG

This assay addresses His-tagged recombinant human TrkA (Homo sapiens (Human), UniProt P04629). The experiment in a line: TrkA LanthaScreen Eu Kinase Binding Assay. The conditions noted are these: averaged IC50; TR-FRET binding, 60 min, 22° C.; read-out: TrkA Enzyme IC50. Put shortly:
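TR-FRET binding: 5 nM His-tagged human TrkA cytoplasmic domain with 4 nM Alexa-Fluor Tracer 236, 2 nM biotin anti-His and 2 nM Eu-streptavidin. Buffer was 25 mM MOPS pH 7.5, 5 mM MgCl2, 0.005% Triton X-100, 2% DMSO, 60 min at 22° C. IC50 from a four-parameter fit of ratiometric percent of control.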
For orientation: IC50 means the concentration that inhibits the measured activity by half. As to `Cc1c(OCCN2CCOCC2)nn(-c2ccccc2)c1NC(=O)N[C@@H]1c2ccccc2C(C)(C)C[C@H]1O` [Example 133, 1-((1R,2R)-2-hydroxy-4,4-dimethyl-1,2,3,4-tetrahydronaphthalen-1-yl)-3-(4-methyl-3-(2-morpholinoethoxy)-1-phenyl-1H-pyrazol-5-yl)urea], the concentration for half-maximal inhibition (IC50) is below 100 nM.
With `Cc1c(OCCN(C)C)nn(-c2ccccc2)c1NC(=O)N[C@@H]1c2ccccc2C(C)(C)C[C@H]1O` [Example 134, 1-(3-(2-(dimethylamino)ethoxy)-4-methyl-1-phenyl-1H-pyrazol-5-yl)-3-((1R,2R)-2-hydroxy-4,4-dimethyl-1,2,3,4-tetrahydronaphthalen-1-yl)urea] the figure was below 100 nM; with `COc1nn(-c2ccccc2)c(NC(=O)N[C@@H]2c3ccccc3CC[C@@H]2O)c1C` [Example 135, 1-((1R,2S)-2-hydroxy-1,2,3,4-tetrahydronaphthalen-1-yl)-3-(3-methoxy-4-methyl-1-phenyl-1H-pyrazol-5-yl)urea], 1000 to 3000 nM; with `Cc1c(-c2cnn(C)c2)nn(-c2ccccc2)c1NC(=O)NC1CN(CC(F)(F)F)C2(CC2)c2ccccc21` (stereo not shown) [Example 136, 1-(1′,4-dimethyl-1-phenyl-1H,1′H-[3,4′-bipyrazol]-5-yl)-3-(2′-(2,2,2-trifluoroethyl)-3′,4′-dihydro-2′H-spiro[cyclopropane-1,1′-isoquinolin]-4′-yl)urea trifluoroacetate], below 100 nM.
With `Cc1c(-c2cnn(C)c2)nn(-c2ccccc2)c1NC(=O)N[C@@H]1c2ccccc2C2(CC2)[C@H]1O` [Example 137, 1-(1′,4-dimethyl-1-phenyl-1H,1′H-[3,4′-bipyrazol]-5-yl)-3-((2′R,3′R)-2′-hydroxy-2′,3′-dihydrospiro[cyclopropane-1,1′-inden]-3′-yl)urea] the figure was below 100 nM; with `O=C(Nc1c(Cl)c(OC[C@H]2CNCCO2)nn1-c1ccccc1)N[C@@H]1c2ccccc2C2(CC2)[C@H]1O` [Example 140, 1-(4-chloro-3-((R)-morpholin-2-ylmethoxy)-1-phenyl-1H-pyrazol-5-yl)-3-((2′R,3′R)-2′-hydroxy-2′,3′-dihydrospiro[cyclopropane-1,1′-inden]-3′-yl)urea], below 100 nM.
With `CN1CCO[C@@H](COc2nn(-c3ccccc3)c(NC(=O)N[C@@H]3c4ccccc4C4(CC4)[C@H]3O)c2Cl)C1` [Example 141, 1-(4-chloro-3-(((R)-4-methylmorpholin-2-yl)methoxy)-1-phenyl-1H-pyrazol-5-yl)-3-((2′R,3′R)-2′-hydroxy-2′,3′-dihydrospiro[cyclopropane-1,1′-inden]-3′-yl)urea] the figure was below 100 nM; with `Cc1c(OC[C@H]2CN(C(=O)OC(C)(C)C)CCO2)nn(-c2ccccc2)c1NC(=O)N[C@@H]1c2ccccc2C(C)(C)C[C@H]1O` [Example 143, (R)-tert-butyl 2-(((5-(3-(trans-2-hydroxy-4,4-dimethyl-1,2,3,4-tetrahydronaphthalen-1-yl)ureido)-4-methyl-1-phenyl-1H-pyrazol-3-yl)oxy)methyl)morpholine-4-carboxylate], below 100 nM; with `COc1nn(-c2ccccc2)c(NC(=O)N[C@@H]2c3ccccc3C(C)(C)C[C@H]2O)c1C` [Example 144, 1-((1R,2R)-2-hydroxy-4,4-dimethyl-1,2,3,4-tetrahydronaphthalen-1-yl)-3-(3-methoxy-4-methyl-1-phenyl-1H-pyrazol-5-yl)urea], below 100 nM.
For the compound `Cn1nc(-c2ccccc2)cc1NC(=O)N[C@@H]1c2ccccc2C(C)(C)C[C@H]1O` [Example 145, 1-((1R,2R)-2-hydroxy-4,4-dimethyl-1,2,3,4-tetrahydronaphthalen-1-yl)-3-(1-methyl-3-phenyl-1H-pyrazol-5-yl)urea], the IC50 was in the range of 100 to 1000 nM.
With `CCOc1nn(-c2ccccc2)c(NC(=O)N[C@@H]2c3ccccc3C(C)(C)C[C@H]2O)c1C` [Example 146, 1-(3-ethoxy-4-methyl-1-phenyl-1H-pyrazol-5-yl)-3-((1R,2R)-2-hydroxy-4,4-dimethyl-1,2,3,4-tetrahydronaphthalen-1-yl)urea], the IC50 was below 100 nM.
With `COCCOc1nn(-c2ccccc2)c(NC(=O)N[C@@H]2c3ccccc3C(C)(C)C[C@H]2O)c1C` [Example 147, 1-((1R,2R)-2-hydroxy-4,4-dimethyl-1,2,3,4-tetrahydronaphthalen-1-yl)-3-(3-(2-methoxyethoxy)-4-methyl-1-phenyl-1H-pyrazol-5-yl)urea] the figure was below 100 nM; with `Cc1c(CCO)nn(-c2ccccc2)c1NC(=O)N[C@@H]1c2ccccc2C(C)(C)C[C@H]1O` [Example 148, 1-((1R,2R)-2-hydroxy-4,4-dimethyl-1,2,3,4-tetrahydronaphthalen-1-yl)-3-(3-(2-hydroxyethyl)-4-methyl-1-phenyl-1H-pyrazol-5-yl)urea], below 100 nM; with `Cc1c(OCCO)nn(-c2ccccc2)c1NC(=O)N[C@@H]1c2ccccc2C(C)(C)C[C@H]1O` [Example 149, 1-((1R,2R)-2-hydroxy-4,4-dimethyl-1,2,3,4-tetrahydronaphthalen-1-yl)-3-(3-(2-hydroxyethoxy)-4-methyl-1-phenyl-1H-pyrazol-5-yl)urea], below 100 nM.
`Cc1c(OC[C@H]2CNCCO2)nn(-c2ccccc2)c1NC(=O)N[C@@H]1c2ccccc2C(C)(C)C[C@H]1O` [Example 150, 1-((1R,2R)-2-hydroxy-4,4-dimethyl-1,2,3,4-tetrahydronaphthalen-1-yl)-3-(4-methyl-3-((R)-morpholin-2-ylmethoxy)-1-phenyl-1H-pyrazol-5-yl)urea]: the IC50 was below 100 nM.
In the case of `Cc1c(OC[C@H]2CN(C(C)C)CCO2)nn(-c2ccccc2)c1NC(=O)N[C@@H]1c2ccccc2C(C)(C)C[C@H]1O` [Example 151, 1-((1R,2R)-2-hydroxy-4,4-dimethyl-1,2,3,4-tetrahydronaphthalen-1-yl)-3-(3-(((R)-4-isopropylmorpholin-2-yl)methoxy)-4-methyl-1-phenyl-1H-pyrazol-5-yl)urea] it was below 100 nM.
With `COc1nn(-c2ccccc2)c(NC(=O)N[C@@H]2c3ccccc3C(C)(C)[C@@H](OC)[C@H]2O)c1C` [Example 153, 1-((r-1,t-2,t-3)-2-hydroxy-3-methoxy-4,4-dimethyl 1,2,3,4-tetrahydronaphthalen-1-yl)-3-(3-methoxy-4-methyl-1-phenyl-1H-pyrazol-5-yl)urea] the figure was below 100 nM; with `CO[C@H]1[C@@H](O)[C@H](NC(=O)Nc2c(C)c(-c3ccc(=O)n(C)c3)nn2-c2ccccc2)c2ccccc2C1(C)C` [Example 154, 1-((r-1,t-2,t-3)-2-hydroxy-3-methoxy-4,4-dimethyl-1,2,3,4-tetrahydronaphthalen-1-yl)-3-(4-methyl-3-(1-methyl-6-oxo-1,6-dihydropyridin-3-yl)-1-phenyl-1H-pyrazol-5-yl)urea], below 100 nM.
In the case of `CO[C@H]1[C@@H](O)[C@H](NC(=O)Nc2c(C)c(-c3cnc(C)nc3)nn2-c2ccccc2)c2ccccc2C1(C)C` [Example 155, 1-((r-1,t-2,t-3)-2-hydroxy-3-methoxy-4,4-dimethyl-1,2,3,4-tetrahydronaphthalen-1-yl)-3-(4-methyl-3-(2-methylpyrimidin-5-yl)-1-phenyl-1H-pyrazol-5-yl)urea], the concentration for half-maximal inhibition (IC50) was below 100 nM.
In the case of `CNC(=O)c1nn(-c2ccccc2)c(NC(=O)N[C@@H]2c3ccccc3C(C)(C)[C@H](OC)[C@H]2O)c1C` [Example 156, 5-(3-((r-1,t-2,c-3)-2-hydroxy-3-methoxy-4,4-dimethyl-1,2,3,4-tetrahydronaphthalen-1-yl)ureido)-N,4-dimethyl-1-phenyl-1H-pyrazole-3-carboxamide], the IC50 is below 100 nM.
With `CO[C@@H]1[C@@H](O)[C@H](NC(=O)Nc2c(C)c(-c3cnn(C)c3)nn2-c2ccccc2)c2ccccc2C1(C)C` [Example 157, 1-(1′,4-dimethyl-1-phenyl-1H,1′H-[3,4′-bipyrazol]-5-yl)-3-((r-1,t-2,c-3)-2-hydroxy-3-methoxy-4,4-dimethyl-1,2,3,4-tetrahydronaphthalen-1-yl)urea] the figure was below 100 nM; with `CO[C@@H]1[C@@H](O)[C@H](NC(=O)Nc2c(C)c(OCC3CCN(C)CC3)nn2-c2ccccc2)c2ccccc2C1(C)C` [Example 158, 1-((r-1,t-2,c-3)-2-hydroxy-3-methoxy-4,4-dimethyl-1,2,3,4-tetrahydronaphthalen-1-yl)-3-(4-methyl-3-((1-methylpiperidin-4-yl)methoxy)-1-phenyl-1H-pyrazol-5-yl)urea], below 100 nM.
